Laboratory results: patent US8304394B2, “Low side effect pharmaceutical composition containing isoniazid” (priority 2008, dated 2012)
Where two headings read alike, the source gives them in different places.

Tests used:
[1] = tested on: Male SD (Sprague-Dawley) rats; experiment: Rat 21-day INH hepatotoxicity study: plasma AST/ALT, body and relative liver weight; conditions: i.p. once daily for 21 days, INH 25 mg/kg, mean±SD
[2] = tested on: Male SD (Sprague-Dawley) rats; experiment: Liver histopathology by light and electron microscopy in the rat INH study; assay type: in vivo
Protocol: (§1) Animals were randomized into one of five groups, each involving three treatments. The first treatment involved either a BNPP injection of 25 mg/kg or a BNPP vehicle (VEH1) injection (saline). […] The second treatment involved injections of either 100 mg/kg DSF or DSF vehicle (VEH2, corn oil). DSF was dissolved in corn oil and i.p. injected at a volume of […]. The third treatment involved injections of INH (25 mg/kg) or INH vehicle (VEH3, saline). INH was dissolved in saline (0.9% NaCl), and i.p. injected at a volume of […]. The first treatment (BNPP or VEH1) was administered 30 minutes before the third treatment (INH or VEH3), and the second treatment (DSF or VEH2) was administered 15 minutes before the third treatment (INH or VEH3).
• (1) Normal control group (NC, n=12): continuously injections of VEH1, VEH2 and VEH3 intraperitoneally once every day for 21 days; • (2) INH group (INH, n=7): continuously injections of INH, VEH1 and VEH2 intraperitoneally once every day for 21 days; • (3) BNPP-INH group (BNPP-INH, n=7): continuously injections of BNPP, INH and VEH2 intraperitoneally once every day for 21 days; • (4) DSF-INH group (DSF-INH, n=7): continuously injections of DSF, INH and VEH1 intraperitoneally once every day for 21 days; • (5) BNPP-DSF-INH group (BNPP-DSF-INH, n=7): continuously injections of BNPP DSH and INH intraperitoneally once every day for 21 days;
After the rats were sacrificed, the livers were subjected to histology analysis.

[3] = tested on: Male SD (Sprague-Dawley) rats; experiment: Galactose elimination capacity (GEC) residual liver function test in the rat INH study; assay type: in vivo; conditions: i.p. once daily for 21 days, galactose 0.5 g/kg i.v., mean±SD, control 4.9±0.8
Protocol: as §1
• (1) Normal control group (NC, n=12): continuously injections of VEH1, VEH2 and VEH3 intraperitoneally once every day for 21 days; • (2) INH group (INH, n=7): continuously injections of INH, VEH1 and VEH2 intraperitoneally once every day for 21 days; • (3) BNPP-INH group (BNPP-INH, n=7): continuously injections of BNPP, INH and VEH2 intraperitoneally once every day for 21 days; • (4) DSF-INH group (DSF-INH, n=7): continuously injections of DSF, INH and VEH1 intraperitoneally once every day for 21 days; • (5) BNPP-DSF-INH group (BNPP-DSF-INH, n=7): continuously injections of BNPP DSH and INH intraperitoneally once every day for 21 days; […]

[4] = target: cDNA expressed human cytochrome P450 2E1 (CYP2E1) (Homo sapiens, UniProt P05181); conditions: 40 min, pH 7.4
CYP2E1 [5] = target: T1, CYP2E1 (Homo sapiens, UniProt P05181); experiment: Chlorzoxazone hydroxylation inhibition (6-OH-CZX by LC/MS/MS); conditions: human, microsomes, pH 7.4
[6] = target: human liver microsomal cytochrome P450 2E1 (CYP2E1) (Homo sapiens, UniProt P05181); conditions: human, 30 min, pH 7.4
CYP2E1 [7] = target: T1, CYP2E1; experiment: in vitro; conditions: pH 7.4, Inhibition of CYP 2E1 (%)
rabbits = conditions: pretreatment with amidase inhibitor; cited from earlier work

T1 sequence (P05181 whole entry): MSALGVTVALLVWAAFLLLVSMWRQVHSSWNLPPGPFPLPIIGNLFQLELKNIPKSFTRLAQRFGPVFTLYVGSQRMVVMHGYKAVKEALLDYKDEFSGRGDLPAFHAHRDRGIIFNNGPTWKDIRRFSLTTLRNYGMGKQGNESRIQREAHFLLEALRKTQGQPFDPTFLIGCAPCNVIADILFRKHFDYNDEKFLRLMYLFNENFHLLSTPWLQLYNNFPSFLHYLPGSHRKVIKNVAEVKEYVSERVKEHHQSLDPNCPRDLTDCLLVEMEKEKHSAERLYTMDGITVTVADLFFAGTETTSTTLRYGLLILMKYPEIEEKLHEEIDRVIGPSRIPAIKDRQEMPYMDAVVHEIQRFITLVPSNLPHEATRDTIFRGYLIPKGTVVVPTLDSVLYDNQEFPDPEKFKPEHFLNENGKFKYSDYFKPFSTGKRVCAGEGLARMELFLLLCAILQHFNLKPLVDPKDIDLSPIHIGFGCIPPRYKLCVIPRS
cDNA expressed human cytochrome P450 2E1 (CYP2E1), sequence (P05181 whole entry): as above
human liver microsomal cytochrome P450 2E1 (CYP2E1), sequence (P05181 whole entry): as above

NNC(=O)c1ccncc1 [INH, isoniazid]
peak plasma ALT activity ([1]; control 44±6): 52±3 IU/L | peak plasma AST activity ([1]; control 116±11): 129±10 IU/L | hepatic necrosis (EM results) ([2]; daily i.p. injections for three weeks): no hepatic necrosis was observed | liver injury (histopathology) ([2]; daily i.p. injections for three weeks, versus control group): hepatocellular damage | hepatocyte rough endoplasmic reticulum (rER) versus control ([2]; electron microscopy 9,000×): increased significantly | GEC value [3]: 3.4±0.6 mg/min·kg

CCN(CC)C(=S)S [DDTC, Diethyldithiocarbamic acid]
HFC synthesis ([4]; 0.03 μM): 256.00 pmol | HFC synthesis ([4]; 0.091 μM): 202.00 pmol | HFC synthesis ([4]; 2.47 μM): 55.18 pmol | HFC synthesis ([4]; 7.4 μM): 21.08 pmol | HFC synthesis ([4]; 22.2 μM): 15.10 pmol | inhibition at 30 min, 50 μM (CYP2E1 [5]): 48.7% | inhibition at 30 min, 100 μM (CYP2E1 [5]): 87.6% | 6-OH-CZX concentration ([6]; 50 μM): 1644.5 pmol | 6-OH-CZX concentration ([6]; 100 μM): 431.2 pmol | inhibition at 40 min, 0.091 μM (CYP2E1 [7]; DDTC 0.091 μM): 8.71% | inhibition at 40 min, 2.47 μM (CYP2E1 [7]; DDTC 2.47 μM): 75.1% | inhibition at 40 min, 7.4 μM (CYP2E1 [7]; DDTC 7.4 μM): 90.5% | inhibition at 40 min, 22.2 μM (CYP2E1 [7]; DDTC 22.2 μM): 93.2%

O=[N+]([O-])c1ccc(OP(=O)(O)Oc2ccc([N+](=O)[O-])cc2)cc1 [BNPP, bis-p-nitrophenyl phosphate]
effect on isoniazid-induced hepatotoxicity (rabbits): can prevent isoniazid-induced hepatotoxicity
